Values quoted from earlier work in US20130023661A1, “FLUORINATING REAGENTS WITH (PERFLUORALKYL) FLUOROPHOSPHATE ANION” (MERCK PATENT GESELLSCHAFT MIT BESCHRANKTER HAFTUNG, priority 2010, published 2013).

Conditions: stored in a cool, dry place

In the case of `F[N+]12CC[N+](CCl)(CC1)CC2` [F-TEDA-BF4, 1-chloromethyl-4-fluorodiazoniabicyclo[2.2.2]octane bistetrafluoroborate], the guaranteed storage stability is given as “not more than one year”.
